PubChem BioAssay (NCI)
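Five compound concentrations were applied to cells in 96-well plates for 48 hours; endpoints were derived by simple linear interpolation of the resulting dose-response curve. TGI marks complete inhibition of growth.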

Columns and labels:
Test in all cases: NCI tumour cell line growth inhibition, 48 h
[1] = tested on: KM12 colon
[2] = tested on: MALME-3M melanoma
[3] = tested on: MOLT-4 leukemia
[4] = tested on: LOX IMVI melanoma
[5] = tested on: 786-0 renal
[6] = tested on: NCI-H23 lung
[7] = tested on: SNB-75 CNS
[8] = tested on: HOP-92 NSCLC
[9] = tested on: A498 renal
[10] = tested on: DLD-1 colon
[11] = tested on: HL-60(TB) leukemia
[12] = tested on: M14 melanoma
[13] = tested on: SK-MEL-5 melanoma
[14] = tested on: SNB-19 CNS
[15] = tested on: OVCAR-8 ovarian
[16] = tested on: OVCAR-5 ovarian
[17] = tested on: HOP-62 NSCLC
[18] = tested on: DMS 114 small cell lung
[19] = tested on: HT29 colon
[20] = tested on: U251 CNS
[21] = tested on: UO-31 renal
[22] = tested on: HCT-116 colon
[23] = tested on: A549 NSCLC
[24] = tested on: ACHN renal
[25] = tested on: SF-539 CNS
[26] = tested on: TK-10 renal
[27] = tested on: NCI-H522 lung
[28] = tested on: OVCAR-3 ovarian
[29] = tested on: LXFL 529 NSCLC
[30] = tested on: EKVX NSCLC
[31] = tested on: XF 498 CNS
[32] = tested on: HCC-2998 colon
[33] = tested on: SW-620 colon
[34] = tested on: M19-MEL melanoma
[35] = tested on: K-562 leukemia
[36] = tested on: RPMI-8226 leukemia
[37] = tested on: UACC-257 melanoma
[38] = tested on: NCI-H460 lung
[39] = tested on: COLO 205 colon
[40] = tested on: SK-MEL-2 melanoma
[41] = tested on: RXF 393 renal
[42] = tested on: KM20L2 colon
[43] = tested on: CCRF-CEM leukemia
[44] = tested on: SK-OV-3 ovarian
[45] = tested on: IGROV1 ovarian
[46] = tested on: DMS 273 small cell lung
[47] = tested on: RXF-631 renal
[48] = tested on: UACC-62 melanoma
[49] = tested on: SNB-78 CNS
[50] = tested on: SK-MEL-28 melanoma
[51] = tested on: SN12C renal
[52] = tested on: SF-268 CNS
[53] = tested on: SF-295 CNS
[54] = tested on: HCT-15 colon
[55] = tested on: CAKI-1 renal
[56] = tested on: OVCAR-4 ovarian

## O=C(NC1CCCCC1)NC12CC3CC(CC(F)(C3)C1)C2
[1]
  TGI: > 100 µM
[2]
  TGI: > 100 µM
[3]
  TGI: > 100 µM
[4]
  TGI: > 100 µM
[5]
  TGI: > 100 µM
[6]
  TGI: > 100 µM
[7]
  TGI: > 100 µM
[8]
  TGI: > 100 µM
[9]
  TGI: > 100 µM
[10]
  TGI: > 100 µM
[11]
  TGI: > 100 µM
[12]
  TGI: > 100 µM
[13]
  TGI: > 100 µM
[14]
  TGI: > 100 µM
[15]
  TGI: > 100 µM
[16]
  TGI: > 100 µM
[17]
  TGI: > 100 µM
[18]
  TGI: > 100 µM
[19]
  TGI: > 100 µM
[20]
  TGI: > 100 µM
[21]
  TGI: > 100 µM
[22]
  TGI: > 100 µM
[23]
  TGI: > 100 µM
[24]
  TGI: > 100 µM
[25]
  TGI: > 100 µM
[26]
  TGI: > 100 µM
[27]
  TGI: > 100 µM
[28]
  TGI: > 100 µM
[29]
  TGI: > 100 µM
[30]
  TGI: > 100 µM
[31]
  TGI: > 100 µM
[32]
  TGI: > 100 µM
[33]
  TGI: > 100 µM
[34]
  TGI: > 100 µM
[35]
  TGI: > 100 µM
[36]
  TGI: > 100 µM
[37]
  TGI: > 100 µM
[38]
  TGI: > 100 µM
[39]
  TGI: > 100 µM
[40]
  TGI: > 100 µM
[41]
  TGI: > 100 µM
[42]
  TGI: > 100 µM
[43]
  TGI: > 100 µM
[44]
  TGI: > 100 µM
[45]
  TGI: > 100 µM
[46]
  TGI: > 100 µM
[47]
  TGI: > 100 µM
[48]
  TGI: > 100 µM
[49]
  TGI: > 100 µM
[50]
  TGI: > 100 µM

## Oc1ccc(O)c(-n2cccn2)c1
[1]
  TGI: > 100 µM
[2]
  TGI: > 100 µM
[3]
  TGI: 59.5 µM
[4]
  TGI: > 100 µM
[5]
  TGI: > 100 µM
[6]
  TGI: > 100 µM
[7]
  TGI: > 100 µM
[51]
  TGI: > 100 µM
[8]
  TGI: 93.2 µM
[9]
  TGI: > 100 µM
[10]
  TGI: > 100 µM
[11]
  TGI: 44.8 µM
[12]
  TGI: > 100 µM
[13]
  TGI: > 100 µM
[52]
  TGI: > 100 µM
[14]
  TGI: > 100 µM
[15]
  TGI: > 100 µM
[16]
  TGI: > 100 µM
[17]
  TGI: > 100 µM
[18]
  TGI: 89.7 µM
[19]
  TGI: > 100 µM
[20]
  TGI: > 100 µM
[21]
  TGI: > 100 µM
[53]
  TGI: > 100 µM
[54]
  TGI: > 100 µM
[23]
  TGI: > 100 µM
[24]
  TGI: > 100 µM
[25]
  TGI: > 100 µM
[26]
  TGI: > 100 µM
[27]
  TGI: 34.7 µM
[55]
  TGI: 33.3 µM
[56]
  TGI: > 100 µM
[29]
  TGI: 38.9 µM
[30]
  TGI: > 100 µM
[31]
  TGI: > 100 µM
[32]
  TGI: > 100 µM
[33]
  TGI: 73.7 µM
[34]
  TGI: 76.1 µM
[35]
  TGI: 64.3 µM
[36]
  TGI: > 100 µM
[38]
  TGI: > 100 µM
[39]
  TGI: 46.2 µM
[40]
  TGI: 95.7 µM
[41]
  TGI: > 100 µM
[42]
  TGI: > 100 µM
[43]
  TGI: 57 µM
[44]
  TGI: > 100 µM
[45]
  TGI: > 100 µM
[46]
  TGI: > 100 µM
[47]
  TGI: > 100 µM
[48]
  TGI: > 100 µM
[49]
  TGI: > 100 µM
[50]
  TGI: > 100 µM
